The subject of the data set is S180 cancer bearing mice. The following applies: S180 NIH mice, 100 mg/kg intraperitoneal, 2 times per week, 11 days. The protocol: 85 healthy NIH mice, unisexual, were selected. […] The other 55 mice were used for solid tumor test.
At the beginning of the experiment, 20 mice with ascites were selected and sacrificed by pulling the cervical vertebrae on a sterilized bench, then the abdomens were sterilized with iodine tinctur, 75% alcohol q-tips in turn. The ascites were collected with 3 ml asepsis disposable syringe and put in asepsis dry conical flask and stored on the ice. […] It should be noted that the ascites collected were a milk-yellow or milk-white fluid, and the ascites with a larger quantity of RBC should be discarded. After the ascites were diluted 100 times, the cell density was measured to about 2×10^7/ml by the method of Trypan Blue count. The ascites were diluted with saline. The diluted ascites were subcutaneously injected, at a dosage of 0.2 ml, into the right armpit of each mouse.
After all qualified 55 mice were injected, they were randomly divided into 5 groups: the blank control group, the compound fungus polyose low-, medium-, and high-dosage groups, and the positive cyclophosphamide control group, respectively. 11 mice were in each group. […] After 11 days of administration, all mice were sacrificed and their body weights, tumor weights, thymic weights, and spleen weights were measured. After the end of the experiment, statistical treatment of data was carried out to compare the difference among the groups. Thymus (spleen) index=Thymus (spleen) weight/Body weight×10 g Body Weight Changes=Body weight after administration−Body weight before administration Inhibition ratio %=(Tumor weight in blank group−Tumor weight in treatment group)/Tumor weight in blank group×100% 4.2 Mice Immune Function Test 4.2.1 Mice Carbon Clearance Test

We go through one compound from patent publication US8617567B2, “Fungus polyose composition with immunity enhancing effect and application thereof” (priority 2009, dated 2013).

On to `O=P1(N(CCCl)CCCl)NCCCO1` (centres unmarked) [Cyclophosphamide], for which the “Condition of thymus and spleen” value was “obvious atrophy”; the Spleen index is given as 0.0322 ± 0.0190 g/10 g; the Thymus index turned out to be 0.0117 ± 0.0041 g/10 g; the Tumor weight was determined as 0.0502 ± 0.0253 g. Moreover, the Anti-tumor ratio (vs blank control) is recorded as 95.9%.
